Measurements published in ChEMBL document CHEMBL1201862, “PubChem BioAssay data set” (2004).
The source made the active and inactive calls. No stated cut-off is given here; in the data, actives have a measured IC50 and inactives only a lower limit.

Legend:
Format in all cases: functional
[1] = target: T1, Sentrin-specific protease 6 (Homo sapiens, UniProt Q9GZR1); test: SAR Analysis of small molecule inhibitors of Sentrin-specific protease 6 (SENP6) using a Luminescent assay. [Related pubchem assays (depositor defined):AID2582, AID2599]
T1 sequence (Q9GZR1 whole entry): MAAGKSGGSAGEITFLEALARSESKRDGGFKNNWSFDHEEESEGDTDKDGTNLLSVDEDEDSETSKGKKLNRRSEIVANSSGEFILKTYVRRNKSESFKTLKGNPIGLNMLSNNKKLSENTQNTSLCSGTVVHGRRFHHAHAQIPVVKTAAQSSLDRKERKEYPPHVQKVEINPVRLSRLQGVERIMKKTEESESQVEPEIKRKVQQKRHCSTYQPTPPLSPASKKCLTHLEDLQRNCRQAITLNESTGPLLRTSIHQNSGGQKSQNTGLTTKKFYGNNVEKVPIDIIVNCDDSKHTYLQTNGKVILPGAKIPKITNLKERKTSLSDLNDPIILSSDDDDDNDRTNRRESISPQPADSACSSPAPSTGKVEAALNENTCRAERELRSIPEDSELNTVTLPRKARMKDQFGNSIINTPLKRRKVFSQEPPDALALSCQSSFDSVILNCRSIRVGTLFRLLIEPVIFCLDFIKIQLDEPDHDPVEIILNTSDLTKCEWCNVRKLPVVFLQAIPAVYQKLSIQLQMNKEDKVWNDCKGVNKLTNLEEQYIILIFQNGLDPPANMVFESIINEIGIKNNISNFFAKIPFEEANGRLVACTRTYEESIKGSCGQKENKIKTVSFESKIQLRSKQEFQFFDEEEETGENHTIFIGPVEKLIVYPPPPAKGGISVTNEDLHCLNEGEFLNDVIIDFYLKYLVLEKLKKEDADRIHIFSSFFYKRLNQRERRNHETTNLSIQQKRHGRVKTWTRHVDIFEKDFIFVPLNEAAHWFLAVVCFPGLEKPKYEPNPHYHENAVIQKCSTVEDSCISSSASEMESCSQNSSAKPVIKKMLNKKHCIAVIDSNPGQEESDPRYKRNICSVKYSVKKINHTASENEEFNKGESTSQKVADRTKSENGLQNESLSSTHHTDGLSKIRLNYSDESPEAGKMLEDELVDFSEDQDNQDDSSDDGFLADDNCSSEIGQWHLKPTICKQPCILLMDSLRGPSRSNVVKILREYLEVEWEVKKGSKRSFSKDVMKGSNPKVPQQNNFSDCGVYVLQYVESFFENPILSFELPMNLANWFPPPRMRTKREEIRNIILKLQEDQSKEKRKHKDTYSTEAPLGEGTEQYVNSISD

[2] = target: T2, Sentrin-specific protease 7 (Homo sapiens, UniProt Q9BQF6); test: inhibition of human SENP7 cleavage activity – biochemical, luminescence, SAR follow-up (AID 504497)
T2 sequence (Q9BQF6 whole entry): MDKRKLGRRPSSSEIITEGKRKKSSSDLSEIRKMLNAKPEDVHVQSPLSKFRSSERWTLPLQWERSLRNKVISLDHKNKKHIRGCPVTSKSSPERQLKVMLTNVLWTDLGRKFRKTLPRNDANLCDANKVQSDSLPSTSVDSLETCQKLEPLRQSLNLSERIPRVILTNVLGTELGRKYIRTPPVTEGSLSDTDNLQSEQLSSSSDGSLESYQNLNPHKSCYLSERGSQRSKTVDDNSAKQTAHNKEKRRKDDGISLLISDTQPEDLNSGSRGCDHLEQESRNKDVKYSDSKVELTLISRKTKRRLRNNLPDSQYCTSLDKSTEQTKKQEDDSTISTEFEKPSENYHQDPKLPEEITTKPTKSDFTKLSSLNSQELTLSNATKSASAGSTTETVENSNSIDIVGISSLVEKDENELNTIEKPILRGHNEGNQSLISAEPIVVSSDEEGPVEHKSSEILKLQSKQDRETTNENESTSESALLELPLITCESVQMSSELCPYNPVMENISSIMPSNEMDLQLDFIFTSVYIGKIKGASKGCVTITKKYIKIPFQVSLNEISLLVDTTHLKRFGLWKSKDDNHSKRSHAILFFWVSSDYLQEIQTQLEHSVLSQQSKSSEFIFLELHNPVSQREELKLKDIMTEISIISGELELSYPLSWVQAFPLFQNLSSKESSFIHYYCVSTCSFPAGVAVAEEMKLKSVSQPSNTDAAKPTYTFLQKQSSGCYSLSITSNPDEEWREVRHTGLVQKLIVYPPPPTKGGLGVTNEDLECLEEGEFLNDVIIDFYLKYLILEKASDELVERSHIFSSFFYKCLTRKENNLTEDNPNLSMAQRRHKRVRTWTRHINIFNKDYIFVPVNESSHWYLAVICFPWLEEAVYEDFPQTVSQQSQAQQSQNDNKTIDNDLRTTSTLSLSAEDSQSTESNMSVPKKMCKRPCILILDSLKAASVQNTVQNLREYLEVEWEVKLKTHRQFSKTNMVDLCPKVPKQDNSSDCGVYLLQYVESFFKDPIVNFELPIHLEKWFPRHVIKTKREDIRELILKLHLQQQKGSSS

[3] = target: T3, Sentrin-specific protease 8 (Homo sapiens, UniProt Q96LD8); test: inhibition of human SENP8 cleavage activity – biochemical, luminescence, SAR follow-up (AID 504501)
T3 sequence (Q96LD8 whole entry): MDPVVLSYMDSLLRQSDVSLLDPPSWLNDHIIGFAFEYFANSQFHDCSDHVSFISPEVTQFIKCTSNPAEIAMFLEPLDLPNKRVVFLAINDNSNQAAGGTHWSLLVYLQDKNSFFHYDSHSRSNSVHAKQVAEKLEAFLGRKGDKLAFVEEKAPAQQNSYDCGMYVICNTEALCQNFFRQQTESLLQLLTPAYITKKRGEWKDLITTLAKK

[4] = target: T2, Sentrin-specific protease 7; test: inhibition of human SENP7 cleavage activity – biochemical, luminescence, set 2, SAR follow-up (AID 588600)
[5] = target: T1, Sentrin-specific protease 6; test: inhibition of human SENP6 catalytic domain – biochemical, luminescence, set 2, SAR follow-up (AID 588598)
[6] = target: T3, Sentrin-specific protease 8; test: inhibition of sentrin protease 8 – biochemical, luminescence, set 2, SAR follow-up (AID 588601)
Caspase-3 [7] = target: T4, Caspase-3 (Homo sapiens, UniProt P42574); test: SAR Analysis of small molecule inhibitors of Sentrin-specific proteases (SENPs) using a Caspase-3 Selectivity assay. [Related pubchem assays (depositor defined):AID2540, AID2599, AID434973, AID489001]
T4 sequence (P42574 whole entry): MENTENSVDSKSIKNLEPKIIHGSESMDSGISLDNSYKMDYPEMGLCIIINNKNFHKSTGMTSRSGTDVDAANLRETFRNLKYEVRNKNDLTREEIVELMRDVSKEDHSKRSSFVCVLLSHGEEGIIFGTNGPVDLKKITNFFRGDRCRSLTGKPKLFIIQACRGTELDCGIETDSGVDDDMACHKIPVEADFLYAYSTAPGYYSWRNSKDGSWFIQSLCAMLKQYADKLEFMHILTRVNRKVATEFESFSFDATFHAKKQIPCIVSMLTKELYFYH

Caspase-3 [8] = target: T4, Caspase-3; test: inhibition of recombinant caspase-3 activity – biochemical, luminescence, set 2, selectivity assay for SENP protease inhibitor project, SAR follow-up (AID 588599)

- IC50 [1]: 20000 nM (active)
- IC50 [2]: 1600 nM (active)
- IC50 [4]: 1870 nM (active)
- IC50 [5]: 1530 nM (active)
- IC50 (Caspase-3 [7]): 5500 nM (active)
- IC50 (Caspase-3 [8]): 2550 nM (active)
Structure (SMILES): Oc1ccccc1-c1nc(/C=C/c2ccc(F)cc2)no1
- IC50 [3]: > 99000 nM (inactive)
- IC50 [6]: 1640 nM (active)
